US20110082130A1 (LIGAND PHARMACEUTICALS, INC., priority 2006, published 2011)

Target: T1, chimeric human H3 receptor (Homo sapiens, UniProt Q9Y5N1)
T1 construct: made in house; host or cells: Sf9 insect cells (baculovirus); P2 membrane preparation
Experiment: Chimeric human H3 receptor GTP binding assay (agonist-stimulated GTP-gamma35S binding, Example 7)
Assay type: biochemical
Conditions: Table I; P2 membranes of Sf9 cells, 1 μM histamine as agonist, Ki from IC50 by Cheng-Prusoff
Outline: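 Sf9 membranes co-expressing chimeric human H3 receptor and heterotrimeric G-protein, 35 μg/tube, in pH 7.4 Tris buffer with 10 μM GDP. Test compounds (10^−10–10^−6 M) competed against 1 μM histamine, […] GTP-gamma35S, 60 min at room temperature. Filter-bound radioactivity counted; IC50 converted to Ki by Cheng-Prusoff. Agonism/inverse agonism tested without histamine (EC50).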

T1 sequence (Q9Y5N1 with tags, fused parts or gaps): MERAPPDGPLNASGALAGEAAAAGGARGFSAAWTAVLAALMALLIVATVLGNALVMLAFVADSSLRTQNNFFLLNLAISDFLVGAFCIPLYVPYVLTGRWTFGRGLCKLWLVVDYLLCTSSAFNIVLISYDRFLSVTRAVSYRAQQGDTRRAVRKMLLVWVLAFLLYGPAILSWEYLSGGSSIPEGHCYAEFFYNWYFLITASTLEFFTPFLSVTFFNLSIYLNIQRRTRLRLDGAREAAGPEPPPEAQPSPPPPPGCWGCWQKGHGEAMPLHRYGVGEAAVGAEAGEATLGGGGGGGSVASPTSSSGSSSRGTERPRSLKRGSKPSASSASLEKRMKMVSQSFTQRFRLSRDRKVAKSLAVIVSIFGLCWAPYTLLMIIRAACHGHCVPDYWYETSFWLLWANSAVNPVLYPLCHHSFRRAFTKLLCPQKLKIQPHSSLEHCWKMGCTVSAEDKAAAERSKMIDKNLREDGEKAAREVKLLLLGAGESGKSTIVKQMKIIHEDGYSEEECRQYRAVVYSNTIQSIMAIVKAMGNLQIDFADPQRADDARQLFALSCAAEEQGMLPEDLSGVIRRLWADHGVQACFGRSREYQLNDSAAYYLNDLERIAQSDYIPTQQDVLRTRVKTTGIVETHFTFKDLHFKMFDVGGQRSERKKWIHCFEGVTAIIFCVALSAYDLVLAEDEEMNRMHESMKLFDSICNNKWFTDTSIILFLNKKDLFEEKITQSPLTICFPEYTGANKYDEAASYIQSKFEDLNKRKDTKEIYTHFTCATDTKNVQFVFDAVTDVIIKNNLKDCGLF

Ki, < 1 µM:
CC(C)N1CCN(C(=O)CN2CCc3ccccc3C2CC2CCCC2)CC1 (stereo not shown) [Compound 54, 1-(cyclopentylmethyl)-2-[2-(4-isopropylpiperazin-1-yl)-2-oxoethyl]-1,2,3,4-tetrahydroisoquinoline]
CC(C)N1CCN(C(=O)CN2CCc3ccccc3C2Cc2ccccc2)CC1 (stereo not shown) [Compound 55, 1-benzyl-2-[2-(4-isopropylpiperazin-1-yl)-2-oxoethyl]-1,2,3,4-tetrahydroisoquinoline]

Same assay, conditions: Table II "Ki", symbol *; assay of Example 7

Ki, < 1 µM:
COc1ccc(-c2ccc3c(c2)CCN(CC(=O)N2CCN(C(C)C)CC2)C3)cc1OC [Compound 527, 6-(3,4-dimethoxyphenyl)-2-[2-(4-isopropylpiperazin-1-yl)-2-oxoethyl]-1,2,3,4-tetrahydroisoquinoline]
O=C(CN1CCc2cc(-c3cnc4ccccc4c3)ccc2C1)N1CCN(C2CCC2)CC1 [Compound 638, 3-{2-[2-(4-cyclobutylpiperazin-1-yl)-2-oxoethyl]-1,2,3,4-tetrahydroisoquinolin-6-yl}quinoline]
CN(C)c1cccc(-c2ccc3c(c2)CCN(CC(=O)N2CCN(C4CCC4)CC2)C3)c1 [Compound 536, 3-{2-[2-(4-cyclobutylpiperazin-1-yl)-2-oxoethyl]-1,2,3,4-tetrahydroisoquinolin-6-yl}-N,N-dimethylaniline]
COc1ccc(-c2ccc3c(c2)CCN(CC(=O)N2CCN(C4CCC4)CC2)C3)cc1C [Compound 540, 2-[2-(4-cyclobutylpiperazin-1-yl)-2-oxoethyl]-6-(4-methoxy-3-methylphenyl)-1,2,3,4-tetrahydroisoquinoline]
N#Cc1ccccc1-c1ccc2c(c1)CCN(CC(=O)N1CCN(C3CCC3)CC1)C2 [Compound 627, 2-{2-[2-(4-cyclobutylpiperazin-1-yl)-2-oxoethyl]-1,2,3,4-tetrahydroisoquinolin-6-yl}benzonitrile]
CCC(COC)Nc1ccc2c(n1)CCN(CC(=O)N1CCN(C3CCC3)CC1)C2 (stereo not shown) [Compound 666, 6-[2-(4-cyclobutylpiperazin-1-yl)-2-oxoethyl]-N-[1-(methoxymethyl)propyl]-5,6,7,8-tetrahydro-1,6-naphthyridin-2-amine]

Same assay, conditions: Table II; "*" = Ki in assay of Example 7 less than 1 micromolar

Ki, < 1 µM:
O=C(CN1CCc2sccc2C1)N1CCN(C2CCC2)CC1 [Compound 265, 5-[2-(4-cyclobutylpiperazin-1-yl)-2-oxoethyl]-4,5,6,7-tetrahydrothieno[3,2-c]pyridine]
O=C(CN1CCc2c(cnn2-c2cccc(F)c2)C1)N1CCN(C2CCC2)CC1 [Compound 235, 5-[2-(4-cyclobutylpiperazin-1-yl)-2-oxoethyl]-1-(3-fluorophenyl)-4,5,6,7-tetrahydro-1H-pyrazolo[4,3-c]pyridine]
O=C(CN1CCc2nn(-c3ccc(F)cc3)cc2C1)N1CCN(C2CCC2)CC1 [Compound 236, 5-[2-(4-cyclobutylpiperazin-1-yl)-2-oxoethyl]-2-(4-fluorophenyl)-4,5,6,7-tetrahydro-2H-pyrazolo[4,3-c]pyridine]
O=C(CN1CCc2nc(N3CCC(F)(F)C3)ccc2C1)N1CCN(C2CCC2)CC1 [Compound 242, 6-[2-(4-cyclobutylpiperazin-1-yl)-2-oxoethyl]-2-(3,3-difluoropyrrolidin-1-yl)-5,6,7,8-tetrahydro-1,6-naphthyridine]
CC(O)Cc1ccc2c(c1)CCN(CC(=O)N1CCN(C3CCC3)CC1)C2 (stereo not shown) [Compound 250, 1-{2-[2-(4-cyclobutylpiperazin-1-yl)-2-oxoethyl]-1,2,3,4-tetrahydroisoquinolin-6-yl}propan-2-ol]
O=C(CN1CCc2sc(-c3cncnc3)cc2C1)N1CCN(C2CCC2)CC1 [Compound 269, 5-[2-(4-cyclobutylpiperazin-1-yl)-2-oxoethyl]-2-pyrimidin-5-yl-4,5,6,7-tetrahydrothieno[3,2-c]pyridine]
O=C(CN1CCc2nn(-c3cncc(Cl)n3)cc2C1)N1CCN(C2CCC2)CC1 [Compound 267, 2-(6-chloropyrazin-2-yl)-5-[2-(4-cyclobutylpiperazin-1-yl)-2-oxoethyl]-4,5,6,7-tetrahydro-2H-pyrazolo[4,3-c]pyridine]
O=C(CN1CCc2cc(-n3cccn3)ccc2C1)N1CCN(C2CCC2)CC1 [Compound 122, 2-[2-(4-cyclobutylpiperazin-1-yl)-2-oxoethyl]-6-(1H-pyrazol-1-yl)-1,2,3,4-tetrahydroisoquinoline]
CC1CN(C(=O)CN2CCc3nc(-c4ccncc4)sc3C2)CCN1C1CCC1 (stereo not shown) [Compound 114, 5-[2-(4-cyclobutyl-3-methylpiperazin-1-yl)-2-oxoethyl]-2-pyridin-4-yl-4,5,6,7-tetrahydro[1,3]thiazolo [5,4-c]pyridine]
O=C(CN1CCc2nc(-c3cccnn3)ccc2C1)N1CCN(C2CCC2)CC1 [Compound 172, 6-[2-(4-cyclobutylpiperazin-1-yl)-2-oxoethyl]-2-pyridazin-3-yl-5,6,7,8-tetrahydro-1,6-naphthyridine]
NC(=O)c1cnn(-c2ccc3c(c2)CCN(CC(=O)N2CCN(C4CCC4)CC2)C3)c1 [Compound 243, 1-{2-[2-(4-cyclobutylpiperazin-1-yl)-2-oxoethyl]-1,2,3,4-tetrahydroisoquinolin-6-yl}-1H-pyrazole-4-carboxamide]
CC(=O)c1ccc(-n2ncc3c2CCN(CC(=O)N2CCN(C4CCC4)CC2)C3)nn1 [Compound 216, 1-(6-{5-[2-(4-cyclobutylpiperazin-1-yl)-2-oxoethyl]-4,5,6,7-tetrahydro-1H-pyrazolo[4,3-c]pyridin-1-yl}pyridazin-3-yl)ethanone]

Same assay, conditions: assay of Example 7; "*" in Ki of Table II

Ki, < 1 µM:
COc1ccc(-c2nc3c(s2)CN(CC(=O)N2CCN(C4CCC4)CC2)CC3)cc1 [Compound 327, 5-[2-(4-cyclobutylpiperazin-1-yl)-2-oxoethyl]-2-(4-methoxyphenyl)-4,5,6,7-tetrahydro[1,3]thiazolo [5,4-c]pyridine]
Cc1cc(C)c(-c2nc3c(s2)CN(CC(=O)N2CCN(C4CCC4)CC2)CC3)c(C)c1 [Compound 366, 5-[2-(4-cyclobutylpiperazin-1-yl)-2-oxoethyl]-2-mesityl-4,5,6,7-tetrahydro[1,3]thiazolo [5,4-c]pyridine]
O=C(CN1CCc2cc(-c3ccc(=O)n(CC(F)(F)F)c3)ccc2C1)N1CCN(C2CCC2)CC1 [Compound 283, 5-{2-[2-(4-cyclobutylpiperazin-1-yl)-2-oxoethyl]-1,2,3,4-tetrahydroisoquinolin-6-yl}-1-(2,2,2-trifluoroethyl)pyridin-2(1H)-one]
N#Cc1cccc(-c2nc3c(s2)CN(CC(=O)N2CCN(C4CCC4)CC2)CC3)c1 [Compound 367, 3-{5-[2-(4-cyclobutylpiperazin-1-yl)-2-oxoethyl]-4,5,6,7-tetrahydro[1,3]thiazolo [5,4-c]pyridin-2-yl}benzonitrile]
O=C(CN1CCc2nc(-c3ccc(F)cc3)sc2C1)N1CCN(C2CCC2)CC1 [Compound 297, 5-[2-(4-cyclobutylpiperazin-1-yl)-2-oxoethyl]-2-(4-fluorophenyl)-4,5,6,7-tetrahydro[1,3]thiazolo [5,4-c]pyridine]
